Reference: ChEMBL document CHEMBL4402591, “Imidazo[1,2-a]pyridine Derivatives as Aldehyde Dehydrogenase Inhibitors: Novel Chemotypes to Target Glioblastoma Stem Cells” (J Med Chem, 2020)

Tests used:
[1] = target: T1, Aldehyde dehydrogenase 1A1 (Homo sapiens, UniProt P00352); test: Inhibition of recombinant human 6His-tagged ALDH1A1 expressed in Escherichia coli BL21(DE3) using acetaldehyde as substrate preincubated for 5 mins followed by substrate addition by spectrometric assay
T1 sequence (P00352 whole entry): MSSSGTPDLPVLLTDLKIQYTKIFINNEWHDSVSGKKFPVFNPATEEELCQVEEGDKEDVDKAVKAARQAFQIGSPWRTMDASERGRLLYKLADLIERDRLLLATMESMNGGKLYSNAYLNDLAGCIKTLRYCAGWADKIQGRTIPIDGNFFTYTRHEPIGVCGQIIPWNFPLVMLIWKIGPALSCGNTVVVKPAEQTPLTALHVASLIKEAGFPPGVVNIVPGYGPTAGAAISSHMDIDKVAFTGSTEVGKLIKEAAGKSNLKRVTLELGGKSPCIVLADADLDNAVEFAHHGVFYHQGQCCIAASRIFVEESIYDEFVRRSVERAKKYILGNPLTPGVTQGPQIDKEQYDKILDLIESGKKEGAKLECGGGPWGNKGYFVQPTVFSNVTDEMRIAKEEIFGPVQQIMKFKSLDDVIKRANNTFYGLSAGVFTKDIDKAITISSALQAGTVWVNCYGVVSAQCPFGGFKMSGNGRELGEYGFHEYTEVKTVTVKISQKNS

[2] = target: T2, Retinaldehyde dehydrogenase 3 (Homo sapiens, UniProt P47895); test: Inhibition of recombinant human 6His-tagged ALDH1A3 expressed in Escherichia coli BL21(DE3) using acetaldehyde as substrate preincubated for 5 mins followed by substrate addition by spectrometric assay
T2 sequence (P47895 whole entry): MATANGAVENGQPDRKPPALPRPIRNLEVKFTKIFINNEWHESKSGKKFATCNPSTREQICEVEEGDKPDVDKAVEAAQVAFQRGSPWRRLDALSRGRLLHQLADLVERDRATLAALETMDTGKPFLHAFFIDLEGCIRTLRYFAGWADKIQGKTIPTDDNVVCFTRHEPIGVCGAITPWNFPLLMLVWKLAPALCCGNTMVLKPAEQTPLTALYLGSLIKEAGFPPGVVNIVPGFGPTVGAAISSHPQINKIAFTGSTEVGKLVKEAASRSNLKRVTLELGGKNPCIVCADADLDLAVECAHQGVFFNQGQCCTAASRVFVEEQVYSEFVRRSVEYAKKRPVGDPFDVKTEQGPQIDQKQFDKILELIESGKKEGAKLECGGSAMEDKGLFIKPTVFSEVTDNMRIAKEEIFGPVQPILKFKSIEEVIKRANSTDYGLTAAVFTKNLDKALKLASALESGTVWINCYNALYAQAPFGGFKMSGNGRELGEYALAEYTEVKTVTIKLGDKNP

[3] = Antiproliferative activity against human PN157 cells measured after 72 hrs by alamar blue assay; type: functional, cell-based
[4] = Antiproliferative activity against human MES267 cells measured after 72 hrs by alamar blue assay; type: functional, cell-based
[5] = Antiproliferative activity against human MES374 cells measured after 72 hrs by alamar blue assay; type: functional, cell-based
Retinal dehydrogenase 2 = target: T3, Retinal dehydrogenase 2 (Homo sapiens, UniProt O94788); test: Inhibition of recombinant human 6His-tagged ALDH1A2 expressed in Escherichia coli BL21(DE3) using acetaldehyde as substrate preincubated for 5 mins followed by substrate addition by spectrometric assay
T3 sequence (O94788 whole entry): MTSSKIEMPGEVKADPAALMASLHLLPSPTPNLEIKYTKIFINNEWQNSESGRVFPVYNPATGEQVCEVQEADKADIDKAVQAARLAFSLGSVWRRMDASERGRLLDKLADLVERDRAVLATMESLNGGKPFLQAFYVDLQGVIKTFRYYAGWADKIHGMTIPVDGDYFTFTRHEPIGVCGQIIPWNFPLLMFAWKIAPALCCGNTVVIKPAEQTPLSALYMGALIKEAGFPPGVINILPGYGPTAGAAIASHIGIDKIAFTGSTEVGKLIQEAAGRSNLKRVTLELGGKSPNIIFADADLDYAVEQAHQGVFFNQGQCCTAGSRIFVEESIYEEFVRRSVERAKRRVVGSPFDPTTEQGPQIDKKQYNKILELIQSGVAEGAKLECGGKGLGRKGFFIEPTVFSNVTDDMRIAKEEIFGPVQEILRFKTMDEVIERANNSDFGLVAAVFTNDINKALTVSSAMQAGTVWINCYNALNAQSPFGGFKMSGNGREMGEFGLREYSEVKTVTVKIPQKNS

[6] = target: T2, Retinaldehyde dehydrogenase 3; test: Competitive inhibition of recombinant human 6His-tagged ALDH1A3 expressed in Escherichia coli BL21(DE3) using varying level of acetaldehyde as substrate preincubated for 5 mins followed by substrate addition by Michaelis-Menten plot analysis

IC50 [1] | IC50 [2] | IC50 (Retinal dehydrogenase 2) | Ki [6] | Compound | IC50 [3] | IC50 [4] | IC50 [5]
96.9 µM | 27.4 µM | – | – | COC(=O)c1ccc(-c2ccc3nc(-c4ccccc4)cn3c2)cc1 | 822 nM | 823 nM | –
– | 5.3 µM | – | – | N#Cc1cccc(-c2ccc3nc(-c4ccccc4)cn3c2)c1 | – | – | –
– | 6.4 µM | – | – | COc1cccc(-c2cn3cc(-c4ccc(Cl)cc4)ccc3n2)c1 | 29.6 nM | 71.2 nM | 13.5 nM
– | 92.9 µM | – | – | Cc1ccc(-c2cn3cc(-c4ccc(F)cc4)ccc3n2)cc1 | – | – | –
68.8 µM | 45.8 µM | – | – | Clc1ccc(-c2ccc3nc(-c4ccccc4)cn3c2)cc1 | 53.1 nM | 21.5 nM | 0.0196 nM
– | 8.3 µM | – | – | COc1ccc(-c2cn3cc(-c4ccc(OC)c(OC)c4)ccc3n2)cc1 | – | – | –
– | 11.4 µM | – | – | COc1ccc(-c2ccc3nc(-c4ccc(OC)cc4)cn3c2)cc1 | – | – | –
– | 22.8 µM | – | – | Fc1ccc(-c2ccc3nc(-c4ccccc4)cn3c2)cc1 | 25.2 nM | 63.4 nM | 0.00258 nM
19.6 µM | 4.7 µM | 54.6 µM | 540 nM | c1ccc(-c2ccc3nc(-c4ccccc4)cn3c2)cc1 | 151 nM | 46.9 nM | 2.74 nM
– | 17.8 µM | – | – | COc1ccc(-c2ccc3nc(-c4ccccc4)cn3c2)cc1 | 2660 nM | 660 nM | –
– | 5.2 µM | – | – | N#Cc1ccc(-c2ccc3nc(-c4ccccc4)cn3c2)cc1 | – | – | –
– | 21.2 µM | – | – | COc1cccc(-c2cn3cc(-c4ccc(F)cc4)ccc3n2)c1 | 1510 nM | 350 nM | –
– | 11.3 µM | – | – | Cc1ccc(-c2cn3cc(-c4ccccc4)ccc3n2)cc1 | – | – | –
17.3 µM | – | – | – | Clc1ccc(-c2ccc3nc(-c4ccc(Br)cc4)cn3c2)cc1 | – | – | –
– | 27.1 µM | – | – | CSc1ccc(-c2ccc3nc(-c4ccccc4)cn3c2)cc1 | – | – | –

Compound | IC50 [1] | IC50 [2] | IC50 (Retinal dehydrogenase 2) | Ki [6] | IC50 [3] | IC50 [4] | IC50 [5]
COc1ccc(-c2cn3cc(-c4cc(OC)cc(OC)c4)ccc3n2)cc1 | 198 µM | 3.5 µM | – | – | – | – | –
